In ChEMBL document CHEMBL1201862, “PubChem BioAssay data set” (2004):
Activity calls are given as the source filed them.

Experiments:
[1] = molecular target: T1, Tyrosine-protein phosphatase non-receptor type 22 (Homo sapiens, UniProt Q9Y2R2); experiment: SAR LYP1 Fluorescent Assay using pCAP substrate for In Vitro dose response studies - Set 4. [Related pubchem assays (depositor defined):AID1779, AID1784]; format: functional
T1 sequence (Q9Y2R2 whole entry): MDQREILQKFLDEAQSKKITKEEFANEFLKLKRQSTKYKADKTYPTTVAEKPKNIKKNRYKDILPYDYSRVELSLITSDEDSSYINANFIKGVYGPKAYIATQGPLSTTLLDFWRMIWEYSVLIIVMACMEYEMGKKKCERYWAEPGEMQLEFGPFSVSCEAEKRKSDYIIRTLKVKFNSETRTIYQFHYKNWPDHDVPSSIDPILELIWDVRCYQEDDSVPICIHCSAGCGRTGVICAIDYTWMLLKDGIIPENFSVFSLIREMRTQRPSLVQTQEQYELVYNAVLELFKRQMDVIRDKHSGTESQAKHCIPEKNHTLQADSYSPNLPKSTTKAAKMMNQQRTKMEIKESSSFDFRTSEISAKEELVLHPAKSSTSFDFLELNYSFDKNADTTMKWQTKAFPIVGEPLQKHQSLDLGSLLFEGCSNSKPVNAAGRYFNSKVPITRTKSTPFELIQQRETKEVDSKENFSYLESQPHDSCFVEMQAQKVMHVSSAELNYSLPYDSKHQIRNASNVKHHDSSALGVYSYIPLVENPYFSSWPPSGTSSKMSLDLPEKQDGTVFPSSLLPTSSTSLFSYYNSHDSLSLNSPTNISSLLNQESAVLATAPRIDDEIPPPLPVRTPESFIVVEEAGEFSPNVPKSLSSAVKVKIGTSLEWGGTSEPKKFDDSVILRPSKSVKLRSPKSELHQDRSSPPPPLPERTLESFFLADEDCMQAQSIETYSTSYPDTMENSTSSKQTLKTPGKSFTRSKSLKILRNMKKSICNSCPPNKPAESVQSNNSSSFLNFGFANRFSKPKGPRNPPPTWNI

[2] = molecular target: Tyrosine-protein phosphatase non-receptor type 12 (Homo sapiens, UniProt Q05209); experiment: SAR Selectivity Analysis of small molecule inhibitors of PEST using pCAP in a fluorescence assay. [Related pubchem assays (depositor defined):AID1779, AID1784, AID2135]; format: functional
Sequence of Tyrosine-protein phosphatase non-receptor type 12 (Q05209 whole entry): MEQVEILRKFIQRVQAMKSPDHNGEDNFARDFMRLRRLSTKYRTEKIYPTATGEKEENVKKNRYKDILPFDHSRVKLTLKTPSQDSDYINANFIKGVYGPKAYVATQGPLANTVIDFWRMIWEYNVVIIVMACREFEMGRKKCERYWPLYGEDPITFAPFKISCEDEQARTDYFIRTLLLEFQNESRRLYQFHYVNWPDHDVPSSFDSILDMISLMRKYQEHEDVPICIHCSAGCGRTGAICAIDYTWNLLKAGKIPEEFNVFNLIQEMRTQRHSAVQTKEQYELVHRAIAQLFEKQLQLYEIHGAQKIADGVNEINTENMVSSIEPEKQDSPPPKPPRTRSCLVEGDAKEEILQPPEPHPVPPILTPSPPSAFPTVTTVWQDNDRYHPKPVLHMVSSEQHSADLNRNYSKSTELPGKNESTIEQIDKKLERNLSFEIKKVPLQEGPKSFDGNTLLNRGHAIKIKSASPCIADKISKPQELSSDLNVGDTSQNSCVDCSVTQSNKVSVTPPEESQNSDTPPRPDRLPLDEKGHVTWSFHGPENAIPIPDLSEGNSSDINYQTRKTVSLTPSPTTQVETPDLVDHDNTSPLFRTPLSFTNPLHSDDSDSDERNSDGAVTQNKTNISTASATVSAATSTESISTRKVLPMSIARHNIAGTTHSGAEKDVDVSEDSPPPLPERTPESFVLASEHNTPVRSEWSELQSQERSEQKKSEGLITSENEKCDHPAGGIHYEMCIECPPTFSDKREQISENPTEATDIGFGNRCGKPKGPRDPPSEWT

[3] = molecular target: T1, Tyrosine-protein phosphatase non-receptor type 22; experiment: SAR LYP1 Fluorescent Assay using OMFP substrate for In Vitro dose response studies - Set 4. [Related pubchem assays (depositor defined):AID1779, AID1784, AID2140, AID2686]; format: functional
[4] = molecular target: T2, RNA-binding protein pos-1 (Caenorhabditis elegans, UniProt G5EF15); experiment: disruptors of C. elegans POS-1 RNA interaction – biochemical, fluorescence polarization, dose response (AID 1964);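 further: purified POS-1 fused to maltose binding protein made in E. coli; potency of compounds blocking POS-1 binding to fluorescent RNA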
T2 sequence (G5EF15 whole entry): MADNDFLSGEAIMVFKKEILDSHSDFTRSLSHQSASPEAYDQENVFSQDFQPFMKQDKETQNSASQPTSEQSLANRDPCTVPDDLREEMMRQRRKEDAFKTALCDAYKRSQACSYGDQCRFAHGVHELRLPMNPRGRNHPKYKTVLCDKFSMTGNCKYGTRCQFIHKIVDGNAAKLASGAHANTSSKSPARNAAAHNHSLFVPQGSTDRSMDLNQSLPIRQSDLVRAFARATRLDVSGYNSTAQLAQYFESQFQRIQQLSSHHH

Aspartyl aminopeptidase = Aspartyl aminopeptidase (Plasmodium falciparum 3D7, UniProt Q8I2J3)
Procathepsin L = Procathepsin L (Homo sapiens, UniProt P07711)
[5] = molecular target: T3, Zinc finger protein mex-5 (Caenorhabditis elegans, UniProt Q9XUB2); experiment: potency of MEX-5 RNA-binding blockers – biochemical, C. elegans, fluorescence polarization, dose response (AID 1960)
T3 sequence (Q9XUB2 whole entry): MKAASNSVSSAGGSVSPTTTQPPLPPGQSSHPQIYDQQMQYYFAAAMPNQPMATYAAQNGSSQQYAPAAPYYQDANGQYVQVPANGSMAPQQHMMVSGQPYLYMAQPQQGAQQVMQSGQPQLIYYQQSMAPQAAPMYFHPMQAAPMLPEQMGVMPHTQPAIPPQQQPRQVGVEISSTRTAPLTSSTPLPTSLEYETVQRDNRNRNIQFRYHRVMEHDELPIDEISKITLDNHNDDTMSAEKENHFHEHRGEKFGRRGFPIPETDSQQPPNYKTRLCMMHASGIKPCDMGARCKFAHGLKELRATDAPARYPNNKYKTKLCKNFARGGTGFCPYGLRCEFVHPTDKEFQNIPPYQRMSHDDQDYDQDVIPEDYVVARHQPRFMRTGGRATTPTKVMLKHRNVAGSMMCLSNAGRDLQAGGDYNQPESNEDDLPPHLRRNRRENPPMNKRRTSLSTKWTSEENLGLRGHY

Large T antigen = Large T antigen (Simian virus 40, UniProt P03070); format: functional, Betapolyomavirus macacae;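 further: Confirmatory-stage PubChem screen for compounds that inhibit SV40 T antigen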
Protein Rev = Protein Rev (Human immunodeficiency virus type 1 group M subtype B (isolate HXB2)(HIV-1), UniProt P04618); experiment: blockers of HIV Rev/RRE RNA complex – biochemical, fluorescence polarization, HIV-1, dose response (AID 434976); design: species or system Human immunodeficiency virus 1
[6] = molecular target: Female germline-specific tumor suppressor gld-1 (Caenorhabditis elegans, UniProt Q17339); experiment: blockers of GLD-1/TGE RNA complex formation – biochemical, fluorescence polarization, C. elegans, dose response (AID 2802);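 further: fluorescence polarization of labeled TGE RNA bound by purified gld-1 protein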
[7] = molecular target: T4, Polyadenylate-binding protein 1 (Homo sapiens, UniProt P11940); experiment: MLLE binding blockers, Cy5 peptide tracer – biochemical, fluorescence polarization, Cy5-PAM2 peptide, secondary, miRNA deadenylation inhibitor project, dose response (AID 602260); format: functional; details: read-out: IC50_Mean
T4 sequence (P11940 whole entry, the tested form may be a part): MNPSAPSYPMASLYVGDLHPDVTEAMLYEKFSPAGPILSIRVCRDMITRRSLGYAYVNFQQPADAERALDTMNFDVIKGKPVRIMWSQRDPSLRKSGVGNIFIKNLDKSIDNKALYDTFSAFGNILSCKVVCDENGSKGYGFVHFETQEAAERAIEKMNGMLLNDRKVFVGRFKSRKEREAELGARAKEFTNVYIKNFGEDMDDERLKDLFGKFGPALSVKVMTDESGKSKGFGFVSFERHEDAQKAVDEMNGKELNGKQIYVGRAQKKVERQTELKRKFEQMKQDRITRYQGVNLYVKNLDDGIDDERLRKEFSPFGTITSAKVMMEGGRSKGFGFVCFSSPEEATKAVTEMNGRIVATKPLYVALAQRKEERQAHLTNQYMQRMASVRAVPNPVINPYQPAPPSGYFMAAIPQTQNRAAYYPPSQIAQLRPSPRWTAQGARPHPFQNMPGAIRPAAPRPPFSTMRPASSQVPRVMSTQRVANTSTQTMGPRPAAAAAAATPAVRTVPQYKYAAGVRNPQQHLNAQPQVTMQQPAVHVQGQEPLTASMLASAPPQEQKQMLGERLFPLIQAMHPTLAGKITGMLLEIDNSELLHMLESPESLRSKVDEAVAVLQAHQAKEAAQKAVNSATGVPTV

[8] = molecular target: T4, Polyadenylate-binding protein 1; experiment: MLLE domain peptide-binding blockers, IC50 – biochemical, fluorescence polarization, FITC-PAM2 peptide, dose response (AID 602259); format: functional; details: read-out: IC50_Mean
Mucolipin-3 = Mucolipin-3 (Homo sapiens, UniProt Q8TDD5); experiment: Dose response cell-based high-throughput screening assay for agonists of the transient receptor potential channel ML3 (TRPML3). [Related pubchem assays: 1526, 1424, 1448 ]; format: functional
Ion channel NompC = Ion channel NompC (Danio rerio, UniProt Q7T1G6); experiment: Fluorescence counterscreen assay for TRPML3 agonists: dose response cell-based high-throughput screening assay to identify agonists of the transient receptor potential channel N1 (TRPN1). [Related pubchem assays: 1526, 1424, 1448 ]; format: functional
[9] = molecular target: NACHT, LRR and PYD domains-containing protein 3 (Homo sapiens, UniProt Q96P20); experiment: NALP3 inhibitors in yeast, dose response, luminescent (AID 488799); format: functional
[10] = molecular target: T5, Eukaryotic translation initiation factor 2-alpha kinase 3 (Homo sapiens, UniProt Q9NZJ5); experiment: Dose response cell-based high-throughput screening assay to measure PERK inhibition. [Related pubchem assays: 1416 ]; format: functional
T5 sequence (Q9NZJ5 whole entry): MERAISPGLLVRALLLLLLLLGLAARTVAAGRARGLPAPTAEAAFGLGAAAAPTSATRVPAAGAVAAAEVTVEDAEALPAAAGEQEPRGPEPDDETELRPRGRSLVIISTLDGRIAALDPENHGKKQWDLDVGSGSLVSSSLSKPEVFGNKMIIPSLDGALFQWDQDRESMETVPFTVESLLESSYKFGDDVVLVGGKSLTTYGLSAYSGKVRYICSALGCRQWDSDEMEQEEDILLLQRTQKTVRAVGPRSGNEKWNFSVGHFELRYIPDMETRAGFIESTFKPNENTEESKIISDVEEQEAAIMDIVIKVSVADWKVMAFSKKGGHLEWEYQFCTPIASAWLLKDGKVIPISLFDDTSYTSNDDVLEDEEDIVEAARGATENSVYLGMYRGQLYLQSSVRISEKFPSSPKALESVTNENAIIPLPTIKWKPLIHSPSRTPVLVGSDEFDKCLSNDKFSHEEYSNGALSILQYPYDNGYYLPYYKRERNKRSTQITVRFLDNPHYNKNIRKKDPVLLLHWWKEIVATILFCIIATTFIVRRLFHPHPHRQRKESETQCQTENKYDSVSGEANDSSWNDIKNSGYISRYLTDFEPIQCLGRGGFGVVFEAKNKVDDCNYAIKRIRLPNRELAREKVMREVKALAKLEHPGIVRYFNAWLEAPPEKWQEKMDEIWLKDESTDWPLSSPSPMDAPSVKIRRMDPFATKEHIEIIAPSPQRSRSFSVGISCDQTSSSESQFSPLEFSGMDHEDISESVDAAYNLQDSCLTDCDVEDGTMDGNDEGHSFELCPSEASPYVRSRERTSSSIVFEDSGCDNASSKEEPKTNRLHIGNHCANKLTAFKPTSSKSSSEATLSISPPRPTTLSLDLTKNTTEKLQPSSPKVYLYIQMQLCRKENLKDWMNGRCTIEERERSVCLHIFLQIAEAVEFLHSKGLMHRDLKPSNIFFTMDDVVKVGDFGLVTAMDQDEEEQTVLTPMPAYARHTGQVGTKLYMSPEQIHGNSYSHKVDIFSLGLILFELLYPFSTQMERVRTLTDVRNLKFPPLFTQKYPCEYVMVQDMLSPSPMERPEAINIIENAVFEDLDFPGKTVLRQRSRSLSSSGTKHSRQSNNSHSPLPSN

[11] = molecular target: T5, Eukaryotic translation initiation factor 2-alpha kinase 3; experiment: Counterscreen assay for PERK inhibitors: Dose response cell-based high throughput screening assay to measure inhibition of PERK at 6 hours. [Related pubchem assays: 1522, 1416 ]; format: functional
Cytochrome P450 2D6 = Cytochrome P450 2D6 (Homo sapiens, UniProt P10635); experiment: qHTS Assay for Inhibitors and Substrates of Cytochrome P450 2D6. [Related pubchem assays: 410 ]; format: ADME; details: read-out: Potency
[12] = molecular target: Metabotropic glutamate receptor 4 (Rattus norvegicus, UniProt P31423); experiment: Modulation of the Metabotropic Glutamate Receptor mGluR4: Rat PAM Potency. [Related pubchem assays (depositor defined):AID2437, AID2807]; format: functional
Estrogen receptor beta = Estrogen receptor beta (Homo sapiens, UniProt Q92731);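 further: recombinant ER-beta bound to coactivator SRC1 peptide in presence of estradiol agonist; inhibitors block coactivator peptide binding and lower the FRET signal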
[13] = molecular target: T6, Voltage-dependent T-type calcium channel subunit alpha-1H (Homo sapiens, UniProt O95180); format: functional
T6 sequence (O95180 whole entry): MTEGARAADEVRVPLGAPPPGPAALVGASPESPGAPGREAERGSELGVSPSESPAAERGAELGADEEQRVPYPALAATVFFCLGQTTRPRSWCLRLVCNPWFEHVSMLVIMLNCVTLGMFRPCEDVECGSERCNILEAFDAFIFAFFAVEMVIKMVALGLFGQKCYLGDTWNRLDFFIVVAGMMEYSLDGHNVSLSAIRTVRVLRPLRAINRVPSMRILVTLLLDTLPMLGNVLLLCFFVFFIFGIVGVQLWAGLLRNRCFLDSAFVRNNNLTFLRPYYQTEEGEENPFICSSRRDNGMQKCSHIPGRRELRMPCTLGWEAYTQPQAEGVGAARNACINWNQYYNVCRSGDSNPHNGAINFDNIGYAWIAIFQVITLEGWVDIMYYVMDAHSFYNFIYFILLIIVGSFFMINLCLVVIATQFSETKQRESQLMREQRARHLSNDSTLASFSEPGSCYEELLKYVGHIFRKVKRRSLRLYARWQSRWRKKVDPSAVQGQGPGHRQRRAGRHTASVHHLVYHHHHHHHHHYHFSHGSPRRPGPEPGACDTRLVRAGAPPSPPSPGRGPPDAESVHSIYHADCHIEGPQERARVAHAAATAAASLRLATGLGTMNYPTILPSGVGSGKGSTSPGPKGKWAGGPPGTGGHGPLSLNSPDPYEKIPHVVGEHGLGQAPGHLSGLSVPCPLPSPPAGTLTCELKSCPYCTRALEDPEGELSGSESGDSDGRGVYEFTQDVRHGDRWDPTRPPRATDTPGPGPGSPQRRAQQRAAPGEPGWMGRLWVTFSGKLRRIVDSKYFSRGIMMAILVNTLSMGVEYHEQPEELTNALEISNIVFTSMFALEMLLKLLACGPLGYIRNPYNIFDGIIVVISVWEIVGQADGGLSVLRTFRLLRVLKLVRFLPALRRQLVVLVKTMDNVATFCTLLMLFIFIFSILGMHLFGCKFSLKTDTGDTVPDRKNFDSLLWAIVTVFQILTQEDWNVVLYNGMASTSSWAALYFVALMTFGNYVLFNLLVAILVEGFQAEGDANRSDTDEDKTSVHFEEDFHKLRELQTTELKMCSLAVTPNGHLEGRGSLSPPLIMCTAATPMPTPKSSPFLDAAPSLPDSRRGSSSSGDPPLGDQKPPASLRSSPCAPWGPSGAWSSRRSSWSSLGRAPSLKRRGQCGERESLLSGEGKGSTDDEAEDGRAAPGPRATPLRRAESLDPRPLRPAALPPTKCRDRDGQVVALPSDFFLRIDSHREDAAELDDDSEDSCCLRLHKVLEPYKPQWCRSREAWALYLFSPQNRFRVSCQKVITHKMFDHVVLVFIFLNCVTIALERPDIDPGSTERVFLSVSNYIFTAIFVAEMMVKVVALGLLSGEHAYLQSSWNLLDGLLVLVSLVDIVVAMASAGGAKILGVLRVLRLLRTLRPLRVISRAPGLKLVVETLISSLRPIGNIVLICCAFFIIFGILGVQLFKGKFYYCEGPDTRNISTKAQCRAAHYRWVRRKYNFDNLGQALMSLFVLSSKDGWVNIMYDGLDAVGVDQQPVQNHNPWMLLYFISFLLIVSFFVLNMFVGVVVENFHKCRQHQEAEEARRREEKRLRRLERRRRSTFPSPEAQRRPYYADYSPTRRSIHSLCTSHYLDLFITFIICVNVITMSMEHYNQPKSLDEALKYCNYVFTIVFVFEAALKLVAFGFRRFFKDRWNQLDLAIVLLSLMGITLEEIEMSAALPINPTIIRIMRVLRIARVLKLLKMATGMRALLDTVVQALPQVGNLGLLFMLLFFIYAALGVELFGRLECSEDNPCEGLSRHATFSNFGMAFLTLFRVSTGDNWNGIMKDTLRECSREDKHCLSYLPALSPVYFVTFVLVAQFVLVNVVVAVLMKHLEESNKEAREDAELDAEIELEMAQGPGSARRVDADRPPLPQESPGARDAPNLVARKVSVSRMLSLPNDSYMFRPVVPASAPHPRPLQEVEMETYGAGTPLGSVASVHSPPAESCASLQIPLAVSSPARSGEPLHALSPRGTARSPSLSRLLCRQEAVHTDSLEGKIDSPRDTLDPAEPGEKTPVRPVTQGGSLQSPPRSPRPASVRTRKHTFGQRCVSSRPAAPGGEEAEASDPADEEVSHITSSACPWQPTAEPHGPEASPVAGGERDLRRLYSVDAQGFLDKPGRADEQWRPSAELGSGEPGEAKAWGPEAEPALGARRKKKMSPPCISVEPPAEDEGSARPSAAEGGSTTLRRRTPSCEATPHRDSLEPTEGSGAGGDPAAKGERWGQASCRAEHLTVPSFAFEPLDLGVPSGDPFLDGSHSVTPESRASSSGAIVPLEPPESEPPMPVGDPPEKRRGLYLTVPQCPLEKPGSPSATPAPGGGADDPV

[14] = molecular target: T6, Voltage-dependent T-type calcium channel subunit alpha-1H; experiment: Inhibitors of T-Type Calcium Channels. [Related pubchem assays (depositor defined):AID449739, AID463087, AID489005, AID493041, AID504579, AID504584, AID504619, AID504628]; format: functional
[15] = molecular target: Acyl-homoserine lactone acylase PvdQ (Pseudomonas aeruginosa (strain LESB58), UniProt Q9I194); experiment: PvdQ acylase enzyme activity blockers – biochemical, fluorescence, plate reader and imaging, cherry-picks, dose response (AID 493231)
[16] = molecular target: T7, Corticotropin-releasing factor receptor 2/Corticotropin-releasing factor-binding protein (Homo sapiens, UniProt P24387+Q13324); experiment: Dose Response confirmation of uHTS hits for small molecule antagonists of the CRF-binding protein and CRF-R2 receptor complex.; format: functional; details: read-out: IC50_Mean
T7 sequence (Q13324 whole entry): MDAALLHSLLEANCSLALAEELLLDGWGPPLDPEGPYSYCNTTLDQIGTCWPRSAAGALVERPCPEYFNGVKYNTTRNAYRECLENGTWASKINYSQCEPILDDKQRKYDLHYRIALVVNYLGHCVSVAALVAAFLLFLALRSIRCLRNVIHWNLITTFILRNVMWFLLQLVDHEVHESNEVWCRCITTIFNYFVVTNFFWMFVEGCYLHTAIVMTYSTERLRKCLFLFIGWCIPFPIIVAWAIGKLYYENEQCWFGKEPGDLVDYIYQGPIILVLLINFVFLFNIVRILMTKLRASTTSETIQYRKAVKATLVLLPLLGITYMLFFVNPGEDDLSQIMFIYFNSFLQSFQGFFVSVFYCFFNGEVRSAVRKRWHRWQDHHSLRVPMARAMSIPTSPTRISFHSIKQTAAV
T7 sequence (P24387 whole entry): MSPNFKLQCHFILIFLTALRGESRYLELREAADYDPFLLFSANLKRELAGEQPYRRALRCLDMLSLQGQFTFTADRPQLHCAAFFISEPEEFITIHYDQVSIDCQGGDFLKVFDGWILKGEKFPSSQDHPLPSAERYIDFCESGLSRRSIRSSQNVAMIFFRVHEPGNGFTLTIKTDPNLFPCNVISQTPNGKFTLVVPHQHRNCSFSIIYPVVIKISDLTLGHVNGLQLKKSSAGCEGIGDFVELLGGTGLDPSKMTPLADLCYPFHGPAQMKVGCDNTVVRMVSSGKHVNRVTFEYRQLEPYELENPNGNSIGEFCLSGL

[17] = molecular target: T7, Corticotropin-releasing factor receptor 2/Corticotropin-releasing factor-binding protein; experiment: activators of CRF receptor 2 with binding protein – uHTS hits, confirmation (AID 602473); format: functional; details: read-out: EC50_Mean
[18] = blockers of CRF-binding protein–CRF-R2 complex – cell-based, uHTS hits, 384-well, dose response (AID 651639); format: functional, Homo sapiens; details: read-out: IC50_Mean
[19] = molecular target: Cyclin-dependent kinase 5/CDK5 activator 1 (Homo sapiens, UniProt Q00535); experiment: blockade of human CDK5 activity – biochemical, cherry-picked samples, set 2, dose response (AID 504545)
Tumor necrosis factor = Tumor necrosis factor (Homo sapiens, UniProt P01375); experiment: analog potency on TNFa NF-kB signaling – cell-based, revised, SAR follow-up (AID 2337); format: functional
Sequence of Tumor necrosis factor (P01375 whole entry, the tested form may be a part): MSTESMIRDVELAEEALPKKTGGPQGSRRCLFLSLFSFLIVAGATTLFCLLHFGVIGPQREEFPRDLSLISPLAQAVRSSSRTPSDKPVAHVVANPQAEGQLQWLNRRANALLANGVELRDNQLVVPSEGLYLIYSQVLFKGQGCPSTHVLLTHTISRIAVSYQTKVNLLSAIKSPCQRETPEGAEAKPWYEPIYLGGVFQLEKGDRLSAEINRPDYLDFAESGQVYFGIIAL

[20] = molecular target: Nucleotide-binding oligomerization domain-containing protein 1 (Homo sapiens, UniProt Q9Y239); experiment: blockers of NOD1 pathway activity – revised, SAR follow-up (AID 2333); format: functional
[21] = molecular target: Nucleotide-binding oligomerization domain-containing protein 2 (Homo sapiens, UniProt Q9HC29); experiment: PubChem AID 2334; format: functional
HEK293 = experiment: cells; details: Homo sapiens;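 further: cells exposed to compound for 14 hours overnight before viability readout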
[22] = A cytotoxicity screen of small molecule inhibitors of the PhoP region in Salmonella typhi identified in the primary screen. [Related pubchem assays: 1850, 1864, 1985 ]; format: functional

CCOC(=O)COc1ccc(/C=N/NC(=O)c2ccc(-c3csc(Nc4ccc(Cl)cc4)n3)cc2)cc1
IC50 [1]: 60.8 µM (active) | IC50 [2]: 37.4 µM (active) | IC50 [3]: 89 µM (active)

CN1CCc2cccc3c2[C@H]1Cc1ccc(O)c(O)c1-3 [APOMORPHINE]
EC50 [4]: > 300 µM (inconclusive) | IC50 (Aspartyl aminopeptidase): 3.67 µM (active) | IC50 (Procathepsin L): > 59.6 µM (not active) | EC50 [5]: 3.29 µM (active) | IC50 (Large T antigen): 20.2 µM (active)

Cc1ccc2c3c(cccc13)-c1ccccc1C2=O
IC50 (Protein Rev): 10.1 µM (not active) | IC50 [6]: 2.67 µM (active) | IC50 [7]: 38.3 µM (inactive) | IC50 [8]: 51.1 µM (inactive)

CN(CCOc1ccccc1)c1ccc(S(=O)(=O)N2CCCCC2)cn1
EC50 (Mucolipin-3): 2.58 µM (active) | EC50 (Ion channel NompC): > 29.9 µM (not active) | IC50 [9]: > 100 µM (inactive)

C[C@]12CS(=O)(=O)C[C@H]1SC(=S)N2c1ccccc1
EC50 [10]: > 55.7 µM (not active) | EC50 [11]: > 55.7 µM (not active)

CC(C)=CCc1c(O)cc(O)c2c1O[C@H](c1ccccc1)CC2=O [GLABRANIN]
AC50 (Cytochrome P450 2D6): 31.6 µM (inconclusive)

O=C(Nc1ccc(Cl)c(Cl)c1)c1ccccn1
EC50 [12]: 1.25 µM (active)

COc1ccc(-c2noc(CCC(=O)N3CCN(c4cccc(C(F)(F)F)c4)CC3)n2)cc1
IC50 (Estrogen receptor beta): > 50 µM (not active) | EC50 [13]: 1.62 µM (active) | EC50 [14]: 4.32 µM (active)

O=[N+]([O-])c1cccnc1Sc1ccc(Cl)cc1
AC50 [15]: 30.1 µM (active) | IC50 [16]: < 0.368 µM (active) | EC50 [17]: > 53 µM (inactive) | IC50 [18]: 3.1 µM (active)

Nc1nc(Nc2cccc(Cl)c2)nc(NCCO)c1[N+](=O)[O-]
AC50 [19]: 8.21 µM (active)

CSC(S)=NN=Cc1ccc(Br)cc1
IC50 (Tumor necrosis factor): > 20 µM (inactive) | IC50 [20]: > 20 µM (inactive) | IC50 [21]: > 20 µM (inactive) | IC50 (HEK293): > 20 µM (inactive)

CC(C)c1ccc(NC(=O)CSc2nnc(-c3ccccn3)n2C)cc1
EC50 [22]: > 50 µM (active)
